# Source: patent US20170107179A1 (Tetraphase Pharmaceuticals, Inc., priority 2010, published 2017)
# Like-named read-outs stand apart in the source and are kept apart here.
# Tests used:
# [1] = system: Gram-negative and Gram-positive organisms (clinical isolates); assay: Broth microdilution MIC against clinical isolates (CLSI M7-A8), Table 9; type: cell-based
# [2] = system: S. aureus Smith; assay: Mouse systemic infection (septicemia) model, CD-1 mice; conditions: Staphylococcus aureus, in Mus musculus, 48 h; for responders at 3 mg/kg: iv, read-out: Percent survival at 48 hours, IV (3 mg/kg); for responders at 30 mg/kg: po, read-out: Percent survival at 48 hours, PO (30 mg/kg)
# [3] = Klebsiella aerogenes, Enterobacter aerogenes, n=30
# [4] = Klebsiella pneumoniae, Klebsiella pneumonia, n=27
# [5] = Stenotrophomonas maltophilia, n=29
# [6] = Streptococcus intermedius, n=30
structure (smiles),measurement,setting,value
CC(C)(O/N=C(\C(=O)N[C@@H]1C(=O)N2C(C(=O)[O-])=C(C[n+]3ccccc3)CS[C@H]12)c1csc(N)n1)C(=O)O [Ceftazidime],MIC50,"[1]; Acinetobacter lwoffii, n=29",1 µg/mL
same,MIC90,"[1]; Acinetobacter lwoffii, n=29",16 µg/mL
same,MIC50,"[1]; Enterobacter cloacae, n=29",> 64 µg/mL
same,MIC90,"[1]; Enterobacter cloacae, n=29",> 64 µg/mL
same,MIC50,"[1]; Escherichia coli, n=40",64 µg/mL
same,MIC90,"[1]; Escherichia coli, n=40",> 64 µg/mL
same,MIC50,"[1]; Kiebsielia oxytoca, n=30",≤ 0.5 µg/mL
same,MIC90,"[1]; Kiebsielia oxytoca, n=30",≤ 0.5 µg/mL
same,MIC50,[1]; [3],≤ 0.5 µg/mL
same,MIC90,[1]; [3],16 µg/mL
same,MIC50,[1]; [4],> 64 µg/mL
same,MIC90,[1]; [4],> 64 µg/mL
same,MIC50,"[1]; Morganella morganii, n=30",≤ 0.5 µg/mL
same,MIC90,"[1]; Morganella morganii, n=30",4 µg/mL
same,MIC50,"[1]; Proteus vulgaris, n=29",≤ 0.5 µg/mL
same,MIC90,"[1]; Proteus vulgaris, n=29",> 64 µg/mL
same,MIC50,"[1]; Salmonella species, n=30, read-out: MIC50",≤ 0.5 µg/mL
same,MIC50,"[1]; Serratia marcescens, n=30",≤ 0.5 µg/mL
same,MIC90,"[1]; Serratia marcescens, n=30",≤ 0.5 µg/mL
same,MIC50,[1]; [5],8 µg/mL
same,MIC90,[1]; [5],> 64 µg/mL
CCC[C@@H]1C[C@@H](C(=O)N[C@@H]([C@H]2O[C@H](SC)[C@H](O)[C@@H](O)[C@H]2O)[C@H](C)Cl)N(C)C1 [Clindamycin],MIC50,[1],0.03 µg/mL
same,MIC90,[1],0.06 µg/mL
same,MIC50,"[1]; Staphylococcus aureus, Staphylococcus aureus (MRSA PVL+), n=30, read-out: MIC50",0.06 µg/mL
same,MIC90,"[1]; Staphylococcus aureus, Staphylococcus aureus (MRSA PVL+), n=30, read-out: MIC90",0.12 µg/mL
same,MIC50,"[1]; Streptococcus anginosus, n=20",≤ 0.015 µg/mL
same,MIC90,"[1]; Streptococcus anginosus, n=20",0.03 µg/mL
same,MIC50,[1]; [6],≤ 0.015 µg/mL
same,MIC90,[1]; [6],0.06 µg/mL
same,MIC50,"[1]; Streptococcus mitis, n=29",0.03 µg/mL
same,MIC90,"[1]; Streptococcus mitis, n=29",0.06 µg/mL
CCC(C)(C)N1Cc2c(O)c3c(c(N(C)C)c2C1)C[C@H]1C[C@H]2[C@H](N(C)C)C(O)=C(C(N)=O)C(=O)[C@@]2(O)C(O)=C1C3=O [Compound 103],responders at 3 mg/kg,[2],83%
same,responders at 30 mg/kg,[2],100%
CC(C)[C@@H](C)N1Cc2c(O)c3c(c(F)c2C1)C[C@H]1C[C@H]2[C@H](N(C)C)C(O)=C(C(N)=O)C(=O)[C@@]2(O)C(O)=C1C3=O [Compound 106],responders at 3 mg/kg,[2],17%
same,responders at 30 mg/kg,[2],20%
CC[C@H](C)N1Cc2c(O)c3c(c(Cl)c2C1)C[C@H]1C[C@H]2[C@H](N(C)C)C(O)=C(C(N)=O)C(=O)[C@@]2(O)C(O)=C1C3=O [Compound 110],responders at 3 mg/kg,[2],33%
same,responders at 30 mg/kg,[2],50%
CN(C)[C@@H]1C(O)=C(C(N)=O)C(=O)[C@@]2(O)C(O)=C3C(=O)c4c(O)c5c(c(C(F)(F)F)c4C[C@H]3C[C@@H]12)CN(C(C)(C)C)C5 [Compound 112],responders at 3 mg/kg,[2],100%
same,responders at 30 mg/kg,[2],20%
CN(C)c1c2c(c(O)c3c1C[C@H]1C[C@H]4[C@H](N(C)C)C(O)=C(C(N)=O)C(=O)[C@@]4(O)C(O)=C1C3=O)CN(C(C)(C)C)C2 [Compound 115],responders at 3 mg/kg,[2],100%
same,responders at 30 mg/kg,[2],100%
CN(C)[C@@H]1C(O)=C(C(N)=O)C(=O)[C@@]2(O)C(O)=C3C(=O)c4c(O)c5c(c(F)c4C[C@H]3C[C@@H]12)CN(C(C)(C)C1CC1)C5 [Compound 118],responders at 3 mg/kg,[2],17%
same,responders at 30 mg/kg,[2],50%
CCC(C)(C)N1Cc2c(O)c3c(c(OC)c2C1)C[C@H]1C[C@H]2[C@H](N(C)C)C(O)=C(C(N)=O)C(=O)[C@@]2(O)C(O)=C1C3=O [Compound 119],responders at 3 mg/kg,[2],83%
same,responders at 30 mg/kg,[2],75%
CC[C@H](C)N1Cc2c(O)c3c(c(F)c2C1)C[C@H]1C[C@H]2[C@H](N(C)C)C(O)=C(C(N)=O)C(=O)[C@@]2(O)C(O)=C1C3=O [Compound 123],responders at 3 mg/kg,[2],33%
same,responders at 30 mg/kg,[2],67%
COc1c2c(c(O)c3c1C[C@H]1C[C@H]4[C@H](N(C)C)C(O)=C(C(N)=O)C(=O)[C@@]4(O)C(O)=C1C3=O)CN(C(C)(C)C)C2 [Compound 125],responders at 3 mg/kg,[2],100%
same,responders at 30 mg/kg,[2],33%
